These results are taken from paper PMC6083370, “Influence of OATPs on Hepatic Disposition of Erlotinib Measured With Positron Emission Tomography” (Clinical Pharmacology and Therapeutics, 2017).

The target of data set [1] is T1, OATP2B1 (SLCO2B1) (Homo sapiens, UniProt O94956).
T1 sequence (O94956 1-709): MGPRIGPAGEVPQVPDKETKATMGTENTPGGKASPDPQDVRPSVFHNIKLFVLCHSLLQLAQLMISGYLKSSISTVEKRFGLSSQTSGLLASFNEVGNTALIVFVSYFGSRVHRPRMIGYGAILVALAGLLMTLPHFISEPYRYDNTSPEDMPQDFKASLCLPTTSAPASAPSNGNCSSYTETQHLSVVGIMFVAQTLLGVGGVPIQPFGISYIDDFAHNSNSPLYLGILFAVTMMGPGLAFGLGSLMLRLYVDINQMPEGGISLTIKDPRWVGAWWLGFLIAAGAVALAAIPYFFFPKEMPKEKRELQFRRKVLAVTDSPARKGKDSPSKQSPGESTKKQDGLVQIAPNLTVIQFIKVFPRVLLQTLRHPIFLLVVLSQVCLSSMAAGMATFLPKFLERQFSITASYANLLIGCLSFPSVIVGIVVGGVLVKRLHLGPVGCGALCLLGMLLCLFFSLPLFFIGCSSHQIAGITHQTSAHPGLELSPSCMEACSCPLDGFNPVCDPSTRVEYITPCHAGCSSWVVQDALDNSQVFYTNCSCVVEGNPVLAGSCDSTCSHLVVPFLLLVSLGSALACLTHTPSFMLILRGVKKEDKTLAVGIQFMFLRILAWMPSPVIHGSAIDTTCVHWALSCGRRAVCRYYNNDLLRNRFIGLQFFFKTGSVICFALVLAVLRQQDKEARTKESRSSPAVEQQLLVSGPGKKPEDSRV
Protocol: OATP overexpression was confirmed by Western blotting. Functionality of the OATPs was verified by [^3H]estrone-3-sulfate uptake experiments. A431 cells transfected with the empty vector were used as a negative control. All cell lines were cultured in Dulbecco's modified eagle medium supplemented with 10% fetal bovine serum, 2 mM L-glutamine, 100 units/mL penicillin and 100 µg/mL streptomycin. […] On the day of the experiment, growth medium was aspired and cells were washed with pre-warmed transport buffer (Hank's balanced salt solution supplemented with 10 mM N-2-hydroxyethylpiperazine-N-2-ethane sulfonic acid). […] Then the drug solutions were removed and cells were washed with pre-warmed transport buffer. […] For time dependency experiments, pre-warmed transport buffer was added and cells were incubated for 30 min. […] For concentration dependency experiments, pre-warmed transport buffer was added and cells were incubated for 30 min. […] In all experiments, cell count was determined on separate 24-well tissue culture plates before or after each experiment. In all experiments, radiotracer solutions were aspired following incubation and cells were washed twice with ice-cold transport buffer. […] Each inhibition experiment was performed 2 times with 3 technical replicates each and radioactivity in cells was corrected for radioactive decay, normalized to 10^6 cells and expressed as percent of vector control (% control). The time dependency experiment was performed once with 3 technical replicates and radioactivity in cells was corrected for radioactive decay and expressed as percent of applied dose per 10^6 cells (%AD/10^6 cells). The concentration dependency experiment was performed once with 3 technical replicates and radioactivity in cells was corrected for radioactive decay. Kinetic parameters were determined using a previously described method.^2 In brief, cellular radioactivity uptake was converted into units of pmol/min/10^6 cells. OATP2B1-specific uptake of erlotinib was determined by subtracting the uptake into cells transfected with the empty vector from the uptake into cells transfected with OATP2B1. The following equation was used to obtain kinetic parameters:
where v is the uptake velocity of erlotinib (pmol/min/10^6 cells), S is the erlotinib concentration in the transport buffer (µM), Km is the Michaelis constant (µM), Vmax is the maximum uptake velocity (pmol/min/10^6 cells), and Pdif is the non-saturable uptake clearance (µL/min/10^6 cells). Curve fitting was performed by the non-linear regression method with a modified Michaelis-Menten model according to equation 1 using Prism 6.0 software (GraphPad Software).

For data set [2], the system named is breast cancer resistance protein (BCRP/ABCG2). On the set-up: method as in PMID 20304939, PMID 21088257. The conditions noted are these: cited from earlier work.
For data set [3], the system named is OATP1B1. The conditions noted are these: read-out: IC50 for inhibition of OATP1B1; cited from earlier work.
For data set [4], the system named is OATP1B1. The conditions noted are these: cited from earlier work.
Data set [5] concerns the target T2, OATP1B3 (SLCO1B3) (Homo sapiens, UniProt Q9NPD5).
T2 sequence (Q9NPD5 1-702): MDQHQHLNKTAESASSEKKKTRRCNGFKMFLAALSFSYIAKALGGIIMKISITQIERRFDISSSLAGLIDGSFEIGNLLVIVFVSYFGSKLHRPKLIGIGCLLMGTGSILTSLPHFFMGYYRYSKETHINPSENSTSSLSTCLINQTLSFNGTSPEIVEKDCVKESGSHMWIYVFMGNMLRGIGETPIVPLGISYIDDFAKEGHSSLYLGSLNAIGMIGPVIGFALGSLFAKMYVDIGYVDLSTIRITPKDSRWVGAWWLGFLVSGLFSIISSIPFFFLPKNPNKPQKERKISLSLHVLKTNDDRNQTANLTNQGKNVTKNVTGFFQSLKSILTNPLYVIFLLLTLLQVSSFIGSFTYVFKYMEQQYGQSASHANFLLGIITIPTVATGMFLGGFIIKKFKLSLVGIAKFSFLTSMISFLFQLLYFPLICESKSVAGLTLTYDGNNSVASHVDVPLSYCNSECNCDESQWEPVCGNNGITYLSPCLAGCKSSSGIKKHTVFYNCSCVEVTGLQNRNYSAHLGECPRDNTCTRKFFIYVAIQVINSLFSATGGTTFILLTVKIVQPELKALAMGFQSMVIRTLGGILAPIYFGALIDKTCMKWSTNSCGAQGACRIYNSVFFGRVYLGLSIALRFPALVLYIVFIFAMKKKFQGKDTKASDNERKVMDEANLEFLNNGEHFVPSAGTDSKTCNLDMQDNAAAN
The following applies: erlotinib 1 μM, cyclosporine A 10 μM, rifampicin 100 μM; 5 min.
Protocol: A431 cells transfected with the empty vector were used as a negative control. All cell lines were cultured in Dulbecco's modified eagle medium supplemented with 10% fetal bovine serum, 2 mM L-glutamine, 100 units/mL penicillin and 100 µg/mL streptomycin. […] On the day of the experiment, growth medium was aspired and cells were washed with pre-warmed transport buffer (Hank's balanced salt solution supplemented with 10 mM N-2-hydroxyethylpiperazine-N-2-ethane sulfonic acid). […] Then the drug solutions were removed and cells were washed with pre-warmed transport buffer. […] For time dependency experiments, pre-warmed transport buffer was added and cells were incubated for 30 min. […] In all experiments, cell count was determined on separate 24-well tissue culture plates before or after each experiment. […] Each inhibition experiment was performed 2 times with 3 technical replicates each and radioactivity in cells was corrected for radioactive decay, normalized to 10^6 cells and expressed as percent of vector control (% control). The time dependency experiment was performed once with 3 technical replicates and radioactivity in cells was corrected for radioactive decay and expressed as percent of applied dose per 10^6 cells (%AD/10^6 cells). The concentration dependency experiment was performed once with 3 technical replicates and radioactivity in cells was corrected for radioactive decay. […]

In data set [6] the test system is OATP1B3. The conditions noted are these: read-out: IC50 for inhibition of OATP1B3; cited from earlier work.
For data set [7] the following is noted: cited from earlier work.
For data set [8], the system named is organic cation transporter 2 (OCT2/SLC22A2). On the set-up: method as in PMID 20304939, PMID 21088257. The conditions noted are these: cited from earlier work.
In data set [9] the test system is organic anion transporter 3 (OAT3/SLC22A8). Further details: method as in PMID 20304939, PMID 21088257. The following applies: cited from earlier work.
For data set [10], the system named is OCT1 (SLC22A1). Further details: method as in PMID 21088257. The conditions noted are these: cited from earlier work.

Molecules are shown by their SMILES.

For `C#Cc1cccc(Nc2ncnc3cc(OCCOC)c(OCCOC)cc23)c1` [erlotinib], the “Michaelis constant (K m) of the saturable component of OATP2B1‐specific uptake” value in [1] (7.5 min, erlotinib 0.05–2.05 μM, ± standard error) stood at 0.32 µM. In data set [1] (erlotinib 1 μM, cyclosporine A 10 μM, rifampicin 100 μM, 5 min), the “effect on [^11C]erlotinib uptake in OATP2B1 overexpressing cells” value is “significantly decreased”. The “substrate of BCRP” value in data set [2] is “substrate”. For the same compound, the concentration for half-maximal inhibition (IC50) in [3] was 104 µM; in data set [6] it was 1.19 µM. Also, in [4], the “transport by OATP1B1” value is reported as “not to be transported”. Moreover, the “effect on [^11C]erlotinib uptake in OATP1B3 overexpressing cells” value in [5] was “no effect”. Also, the lipophilicity (logP) in [7] is 4.19. In [8], the “substrate of OCT2” value is reported as “substrate”. Also, the “substrate of OAT3” value in data set [9] is given as “substrate”. Also, the “substrate of OCT1” value in [10] is listed as “not a substrate”.

Broadly, the IC50 is the concentration that inhibits the measured activity by half. What is called logP is the decadic logarithm of the partition coefficient of the neutral form, usually between octanol and water.
